Where two headings read alike, the source gives them in different places. Where no end group is shown, it is not given here. Where only a bound is given, the exact number is not on record here.

Assay type in all cases: cell-based
Data set [1] deals with E. coli (ATCC 25922). The method, then:
(§1) The in vitro antimicrobial activities of antimicrobial agents were tested using minimum inhibition concentration (MIC) tests. The MIC value is the lowest concentration of peptide at which the visible growth of test organisms was inhibited and reduced. The test strains herein were E. coli (ATCC 25922), Pseudomonas aeruginosa (ATCC 27853) and Staphylococcus aureus (ATCC 29213).
(§2) Overnight cultures of the test organisms were diluted to produce an inoculum containing approximately 10^5 colonies in Meuller-Hinton broth (MHB). Peptide solution with different concentrations was added to diluted culture of the test organisms. After 18 hours of incubation at 37° C., the results were assayed for turbidity as an indicator of cell growth. MIC values for the peptides were measured three times at different time points. […] On the other hand, modifications for primary or secondary structures without influencing their activity, such as acetylation, amidation, formylation, hydroxylation, lipid modification, methylation or phosphorylation, were performed herein.

The test system of data set [2] is Pseudomonas aeruginosa (ATCC 27853). The method, then:
as §1, §2

Data set [3] concerns Staphylococcus aureus (ATCC 29213). The method, then:
as §1, §2

Data set [4] relates to Bacillus cereus. The text has this:
(§3) The MIC values against various strains are shown in table 3, Pem-2251 L and Pem-2254 L have great microbial activity as well.

Data set [5] concerns Bacillus pumilus.
From the text: as §3

The test system of data set [6] is Bacillus substilis.
From the text: as §3

Data set [7] deals with E. coli.
From the text: as §3

The subject of data set [8] is Pseudomonas aeruginosa.
From the text: as §3

Data set [9] relates to Staphylococcus aureus.
From the text: as §3

Data set [10] relates to Staphylococcus epidermidis.
From the text: as §3

The test system of data set [11] is outer membrane of E. coli. The data set can be described thus: Outer membrane permeabilization, NPN uptake assay. To be noted: intact E. coli cells, NPN fluorescence. As for the experimental part: The outer membrane permeabilization activity of the peptide variants was determined by the 1-N-phenylnaphthylamine (NPN) uptake assay, using intact cells of E. coli. […] Since NPN is hydrophobic, it provides a direct measurement of the degree of outer membrane permeability. E. coli take up little or no NPN in a general condition. […] Fluorescence would vary with the concentration of peptide. The steps of the embodiment were described as follow. One ml of overnight culture was used to inoculate 50 ml of media and incubated at 37° C. with shaking. The culture was permitted to grow to an OD600 of 0.4 to 0.6, cells were spun down at 3500 rpm for 10 minutes, washed, and re-suspended in buffer to an OD600 of 0.5. The OD600 was recorded, 1 ml of cells (OD600=0.5) was added to the cuvette and measured after 2-5 seconds. 20 μl NPN 0.5 mM, shaken to mix, was added and measured after 2-5 seconds. 10 ul antibiotic 100× desired final concentration was added, shaken to mix, and measured until the maximal value was reached within 1 to 5 minutes. The concentration of peptide leading to 50% of the maximum increase in NPN uptake was recorded as the P50. As results shown in table 4, all of the peptides were capable of interacting with membrane.

The subject of data set [12] is human red blood cells (hRBC). In words: Hemolytic assay. To be noted: for lysis percentage: hRBC 5% v/v, one hour at 37° C. The method, then: Melittin, Pem-2252 L and Pem-2254 L were tested for hemolysis against human red blood cells (hRBC). […] The hRBCs with EDTA were rinsed 3 times with PBS (800×g, 10 min) and re-suspended in PBS. The hRBCs were diluted into 10% with phosphate-buffered saline and placed 50 μl into each eppendorf. The peptides dissolved in PBS were then added to 50 μl of 10% solution of hRBCs and incubated for an hour at 37° C. (final hRBC concentration, 5% v/v). The samples were centrifuged at 800 g for 10 min […]. Various concentrations of peptides were incubated with pretreated hRBC and the percentage of hemolysis determined (Percentage lysis, Zero hemolysis (blank) and 100% hemolysis were determined in PBS buffer and 1% Triton X-100). […] At 5 μg/ml, 50 μg/ml and 400 μg/ml, its lysis percentages were 0.45%, 1.52% and 16.35%, respectively.

Where [13] appears, read: E. coli ATCC 25922, MHB, 18 hours at 37° C., mean of three.
[14] abbreviates: P. aeruginosa ATCC 27853, MHB, 18 hours at 37° C., mean of three.
The mark [15] stands for this setting: S. aureus ATCC 29213, MHB, 18 hours at 37° C., mean of three.

On to “KKWRAWLKWLAKK-NH2 [Pem-2251 L, Lys Lys Trp Arg Ala Trp Leu Lys Trp Leu Ala Lys Lys]”, for which the MIC in [1] (ATCC 25922, 18 h) was 1.565 µg/mL; in data set [2] (ATCC 27853, 18 h), 6.25 µg/mL; in data set [3] (ATCC 29213, 18 h), 12.5 µg/mL; in data set [4], 6.25 µg/mL; in data set [5], 6.25 µg/mL; in [6], 3.125 µg/mL. In addition, the MIC came to 3.125 µg/mL in data set [7], 6.25 µg/mL in data set [8], 3.125 µg/mL in data set [9] and 3.125 µg/mL in data set [10]. The “P50 (concentration of peptide leading to 50% of the maximum increase in NPN uptake)” value in data set [11] came to 6.25 µg/mL.

Turning to “KFKRWLA-NH2 [Pem-1001 L, Lys Phe Lys Arg Trp Leu Ala]”, the MIC in data set [1] (ATCC 25922, 18 h) is 50 µg/mL; in data set [2] (ATCC 27853, 18 h) it was 50 µg/mL; in data set [3] (ATCC 29213, 18 h) it was 50 µg/mL. The “P50 (concentration of peptide leading to 50% of the maximum increase in NPN uptake)” value in data set [11] is 6.25 µg/mL.

As to “Lys Phe Arg Ala Trp Val Arg (KFRAWVR; not fully specified (bridges); printed as Lys Phe Arg Ala Trp Val Arg; also: cyclic topology, ring type not given here) [Pem-1002 C]”, the MIC in data set [1] (setting [13]), in [2] (setting [14]) and in data set [3] (setting [15]) was more than 50 µg/mL in each case.

Regarding “KWKIWLK-NH2 [Pem-1003 L, Lys Trp Lys Ile Trp Leu Lys]”, the MIC worked out at 25 µg/mL in [1] (ATCC 25922, 18 h); 12.5 µg/mL in data set [2] (ATCC 27853, 18 h); 12.5 µg/mL in data set [3] (ATCC 29213, 18 h).

Take “Lys Lys Trp Arg Ala Trp Leu Lys Trp Leu Ala Lys Lys (KKWRAWLKWLAKK; not fully specified (bridges); printed as Lys Lys Trp Arg Ala Trp Leu Lys Trp Leu Ala Lys Lys; also: cyclic topology, ring type not given here) [Pem-2251 C]”: the results for the MIC in data set [1] (setting [13]), in data set [2] (setting [14]) and in [3] (setting [15]) were 25 µg/mL, 25 µg/mL and 50 µg/mL, respectively.

With “Lys Phe Lys Arg Trp Leu Ala (KFKRWLA; not fully specified (bridges); printed as Lys Phe Lys Arg Trp Leu Ala; also: cyclic topology, ring type not given here) [Pem-1001 C]”, the MIC in data set [1] (setting [13]), in [2] (setting [14]) and in data set [3] (setting [15]) was more than 50 µg/mL each time.

For “Lys Lys Trp Arg Lys Trp Leu Lys Trp Leu Ala Lys Lys (KKWRKWLKWLAKK; not fully specified (bridges); printed as Lys Lys Trp Arg Lys Trp Leu Lys Trp Leu Ala Lys Lys; also: cyclic topology, ring type not given here) [Pem-2254 C]”, the MIC in data set [1] (setting [13]) is 25 µg/mL; in data set [2] (setting [14]) it was 25 µg/mL; in data set [3] (setting [15]) it was 50 µg/mL.

Take “Lys Lys Phe Arg Arg Phe Val Arg Phe Ile Ala Lys Lys (KKFRRFVRFIAKK; not fully specified (bridges); printed as Lys Lys Phe Arg Arg Phe Val Arg Phe Ile Ala Lys Lys; also: cyclic topology, ring type not given here) [Pem-2253 C]”: the MIC in data set [1] (setting [13]), in data set [2] (setting [14]) and in [3] (setting [15]) was 50 µg/mL in each case.

In the case of “Lys Lys Trp Arg Lys Trp Leu Arg Ala Ile Ala Lys Lys (KKWRKWLRAIAKK; not fully specified (bridges); printed as Lys Lys Trp Arg Lys Trp Leu Arg Ala Ile Ala Lys Lys; also: cyclic topology, ring type not given here) [Pem-2252 C]”, the MIC in data set [1] (setting [13]), in data set [2] (setting [14]) and in data set [3] (setting [15]) was more than 50 µg/mL in each case.

With “KKFRRFVRFIAKK-NH2 [Pem-2253 L, Lys Lys Phe Arg Arg Phe Val Arg Phe Ile Ala Lys Lys]”, the MIC in data set [1] (ATCC 25922, 18 h) was 12.5 µg/mL; in data set [2] (ATCC 27853, 18 h), 12.5 µg/mL; in data set [3] (ATCC 29213, 18 h) it was 12.5 µg/mL.

On to `CC[C@H](C)[C@H](NC(=O)CN)C(=O)NCC(=O)N[C@@H](C)C(=O)N[C@H](C(=O)N[C@@H](CC(C)C)C(=O)N[C@@H](CCCCN)C(=O)N[C@H](C(=O)N[C@@H](CC(C)C)C(=O)N[C@H](C(=O)N[C@H](C(=O)NCC(=O)N[C@@H](CC(C)C)C(=O)N1CCC[C@H]1C(=O)N[C@@H](C)C(=O)N[C@@H](CC(C)C)C(=O)N[C@H](C(=O)N[C@@H](CO)C(=O)N[C@@H](Cc1c[nH]c2ccccc12)C(=O)N[C@H](C(=O)N[C@@H](CCCCN)C(=O)N[C@@H](CCCNC(=N)N)C(=O)N[C@@H](CCCCN)C(=O)N[C@@H](CCCNC(=N)N)C(=O)N[C@@H](CCC(N)=O)C(=O)N[C@@H](CCC(N)=O)C(N)=O)[C@@H](C)CC)[C@@H](C)CC)[C@@H](C)O)[C@@H](C)O)C(C)C)C(C)C` [Melittin, reference compound], for which the results for the lysis percentage in data set [12] (5 μg/ml peptide), in data set [12] (50 μg/ml peptide) and in data set [12] (400 μg/ml peptide) were 50%, 100% and 100%, respectively.

As to “KKWRKWLRAIAKK-NH2 [Pem-2252 L, Lys Lys Trp Arg Lys Trp Leu Arg Ala Ile Ala Lys Lys]”, the MIC turned out to be 25 µg/mL in data set [1] (ATCC 25922, 18 h); 25 µg/mL in data set [2] (ATCC 27853, 18 h); 25 µg/mL in data set [3] (ATCC 29213, 18 h). Moreover, the lysis percentage is 3.12% in [12] (5 μg/ml peptide); 0.45% in [12] (5 μg/ml peptide, listed as Pem-2252); 9.82% in data set [12] (50 μg/ml peptide); 1.52% in [12] (50 μg/ml peptide, listed as Pem-2252); 37.66% in data set [12] (400 μg/ml peptide); 16.35% in data set [12] (400 μg/ml peptide, listed as Pem-2252). In addition, the “hemolytic activity against hRBC, in words” value in [12] (compared with other antimicrobial peptides) was “less hemolytic against hRBC than other antimicrobial peptides”.

For the compound “KKWRKWLKWLAKK-NH2 [Pem-2254 L, Lys Lys Trp Arg Lys Trp Leu Lys Trp Leu Ala Lys Lys]”, the minimal inhibitory concentration (MIC) in data set [1] (ATCC 25922, 18 h) amounted to 1.565 µg/mL; in data set [2] (ATCC 27853, 18 h), 1.565 µg/mL; in data set [4] it was 6.25 µg/mL; in data set [5], 3.125 µg/mL; in data set [6], 3.125 µg/mL; in data set [7], 1.565 µg/mL. Moreover, the values for the MIC in data set [8], in data set [9] and in data set [10] were 3.125 µg/mL, 1.565 µg/mL and 1.565 µg/mL, respectively. The results for the lysis percentage in [12] (5 μg/ml peptide), in data set [12] (50 μg/ml peptide) and in [12] (400 μg/ml peptide) were 0.45%, 1.52% and 16.35%, respectively.

One may read the MIC as the smallest concentration in the dilution series that meets the test's criterion for growth inhibition. A high value points to a need for much substance.
